Data from patent US8362023B2, “Pyrazolo pyrimidines” (Hoffmann-La Roche Inc., priority 2011, dated 2013).
Counter-ions that a name gives are not always drawn.

What was measured:
Human DYRK1B = biological target: T1, Human DYRK1B (Homo sapiens, UniProt Q9Y463); experiment: DYRK1B Kinase TR-FRET (IMAP-Tb) Assay; assay type: biochemical; details: for IC50: TR-FRET (IMAP-Tb), ATP 70 μM, 37° C. for 60 minutes, averages of multiple runs, read-out: Enzyme IC50 (μM) DYRK1B; for inhibition at 10 µM: at 10 μM test compound concentration, where the IC50 was not determined
T1 construct: purchased Invitrogen PR8350B (former PV4649)
Source text: DYRK1B Kinase TR-FRET (IMAP-Tb) Assay Assay Principle The kinase TR-FRET (IMAP-Tb) assay uses a fluorescence labeled substrate peptide in the kinase reaction. Upon phosphorylation by the kinase, phosphopeptide is produced, which will be detected by the binding solution provided in IMAP TR-FRET binding kit. After the completion of the kinase reaction, the reaction will be stopped by adding the binding solution containing terbium tracer. This tracer is immobilized on the surface of the IMAP beads, which also contain metal ions on the beads that bind to the phospho-groups of the products. Thus the phosphorylated product of the reaction can enter into close proximity to the tracer, producing resonance energy transfer. Due to the long lifetime of terbium (Tb) fluorescence the detection can be run in time resolved mode, which virtually eliminates fluorescence interference from assay components or compounds. The TR-FRET signal measurement from this assay, given as an IC50 measurement, is a measure of a test compound's ability to interfere with the phosphorylation of the peptide substrate, that is it inhibits the phosphorylation of the substrate peptide by DYRK1B, and is thus a measure of the test compound's ability to inhibit the activity of DYRK1B. IC50 is the amount of test compound that inhibits 50% of the activity of DYRK1B in this assay. In some cases where the IC50 was not determined, then the % inhibition at 10 μM test compound concentration may be reported. Materials and Reagents • 1. Human DYRK1B: from Invitrogen. Part #PR8350B (former PV4649) • 2. Substrate Peptide: in-house synthesized: RRRFRPASPLRGPPK • 3. IMAP TR-FRET IPP Explorer Kit: from Molecular Devices. Part #R8157 • 4. Kinase Assay Buffer (KAB): 10 mM HEPES pH 7.0, 50 mM NaCl, 5 mM MgCl2, 1 mM DTT, 1 mM NaVO4, 200 μg/mL BSA (0.02%) • 5. Assay Plate: Remp polypropylene clear 384-well microplate. Cat#23490-102 • 6. Detection Plate: Costa black 384-well microplate. Cat #3710 Assay Procedure: this Assay was Performed as Follows: • 1. Transfer 1.5 μL of 20× compound solution to each well of an assay plate. • 2. Add to each well 22.5 μL of KAB Buffer. • 3. Add to each well 3 μL of the solution of DYRK1B and ATP. […] Add to each well 3 μL of the substrate peptide. The assay concentration is 1.0 μM • 5. Incubate the assay plates at 37° C. for 60 minutes. • 6. Add 18 μL of Detection Solution (1:800 diluted Progress bead stock, 1:400 diluted Tb stock, 80% Buffer A, and 20% Buffer B) into each well of detection plates. • 7. Transfer 6 μL of assay solution from the assay plate to the detection plate. • 8. Shake detection plates for 30 minutes. • 9. Read plates in Envision with wavelength set at excitation 340 nm for Tb, emission 490 nm, and […] 520 nm. • 10. Calculation: TR-FRET Signal=(Reading at […]/Reading at 490 nM)×2000000

Human DYRK1A = biological target: T2, Human DYRK1A (Homo sapiens, UniProt Q13627); experiment: DYRK1A Kinase TR-FRET (IMAP-Tb) Assay; assay type: biochemical; details: for IC50: TR-FRET (IMAP-Tb), ATP 70 μM, 37° C. for 60 minutes, averages of multiple runs, read-out: Enzyme IC50 (μM) DYRK1A
T2 construct: purchased Invitrogen PV3997
Source text: DYRK1A Kinase TR-FRET (IMAP-Tb) Assay
The kinase TR-FRET (IMAP-Tb) assay uses a fluorescence labeled substrate peptide in the kinase reaction. Upon phosphorylation by the kinase, phosphopeptide is produced, which will be detected by the binding solution provided in IMAP TR-FRET binding kit. After the completion of the kinase reaction, the reaction will be stopped by adding the binding solution containing terbium tracer. This tracer is immobilized on the surface of the IMAP beads, which also contain metal ions on the beads that bind to the phospho-groups of the products. Thus the phosphorylated product of the reaction can enter into close proximity to the tracer, producing resonance energy transfer. Due to the long lifetime of terbium (Tb) fluorescence the detection can be run in time resolved mode, which virtually eliminates fluorescence interference from assay components or compounds.
The TR-FRET signal measurement from this assay, given as an IC50 measurement, is a measure of a test compound's ability to interfere with the phosphorylation of the peptide substrate, that is it inhibits the phosphorylation of the substrate peptide by DYRK1A, and is thus a measure of the test compound's ability to inhibit the activity of DYRK1A.
Materials and Reagents • 1. Human DYRK1A: from Invitrogen. Part #PV3997 • 2. Substrate Peptide: […] • 3. IMAP TR-FRET IPP Explorer Kit: from Molecular Devices. Part #R8157 • 4. Kinase Assay Buffer (KAB): 10 mM HEPES pH 7.0, 50 mM NaCl, 5 mM MgCl2, 1 mM DTT, 1 mM NaVO4, 200 ug/mL BSA (0.02%) • 5. Assay Plate: Remp polypropylene clear 384-well microplate. […] Detection Plate: Costa black 384-well microplate.
Assay Procedure: this Assay was Performed as Follows: • 1. Transfer 1.5 μL of 20× compound solution to each well of an assay plate. • 2. Add to each well 22.5 μL of KAB Buffer. • 3. Add to each well 3 μL of the solution of DYRK1A and ATP. […] Add to each well 3 μL of the substrate peptide. The assay concentration is 1.0 μM • 5. Incubate the assay plates at 37° C. for 60 minutes. • 6. Add 18 μL of Detection Solution (1:800 diluted Progress bead stock, 1:400 diluted Tb stock, 80% Buffer A, and 20% Buffer B) into each well of detection plates. • 7. Transfer 6 μL of assay solution from the assay plate to the detection plate. • 8. Shake detection plates for 30 minutes. • 9. Read plates in Envision with wavelength set at excitation 340 nm for Tb, emission 490 nm, and […] 520 nm. • 10.

T1 sequence (Q9Y463 whole entry): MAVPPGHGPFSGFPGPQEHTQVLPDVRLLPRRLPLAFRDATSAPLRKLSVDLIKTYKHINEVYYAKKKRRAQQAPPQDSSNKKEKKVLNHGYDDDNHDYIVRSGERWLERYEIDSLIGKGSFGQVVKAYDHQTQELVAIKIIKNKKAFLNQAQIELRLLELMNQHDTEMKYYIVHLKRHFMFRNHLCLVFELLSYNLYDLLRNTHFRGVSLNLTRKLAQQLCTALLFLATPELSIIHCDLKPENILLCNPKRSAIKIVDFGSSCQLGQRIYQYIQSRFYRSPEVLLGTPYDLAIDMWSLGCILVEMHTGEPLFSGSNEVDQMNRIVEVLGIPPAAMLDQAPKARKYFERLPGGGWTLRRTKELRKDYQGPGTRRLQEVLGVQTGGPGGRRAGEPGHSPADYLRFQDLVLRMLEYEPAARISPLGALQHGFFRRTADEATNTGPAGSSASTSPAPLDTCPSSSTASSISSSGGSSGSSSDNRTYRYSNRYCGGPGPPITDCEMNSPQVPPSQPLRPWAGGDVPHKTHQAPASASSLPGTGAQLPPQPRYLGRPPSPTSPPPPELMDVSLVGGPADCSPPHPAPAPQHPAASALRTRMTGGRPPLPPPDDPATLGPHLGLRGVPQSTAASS

Row | Compound | IC50 (Human DYRK1B) | IC50 (Human DYRK1A) | inhibition at 10 µM (Human DYRK1B) | inhibition at 10 µM (Human DYRK1A; at 10 μM test compound concentration, where the IC50 was not determined)
1 | CN(C)CCNc1ncc2c(-c3ccnc(NCc4cccc(Cl)c4)n3)n[nH]c2n1 [Example 87, N-{3-[2-(3-Chloro-benzylamino)-pyrimidin-4-yl]-1H-pyrazolo[3,4-d]pyrimidin-6-yl}-N′,N′-dimethyl-ethane-1,2-diamine; hydrochloride] | 0.69 µM | 0.31 µM |  | 
2 | Clc1ccc(CNc2cccc(-c3n[nH]c4nc(NCCN5CCOCC5)ncc34)c2)cc1 [Example 50, {3-[3-(4-Chloro-benzylamino)-phenyl]-1H-pyrazolo[3,4-d]pyrimidin-6-yl}-(2-morpholin-4-yl-ethyl)-amine] | > 10 µM | 4.91 µM |  | 
3 | c1cc(NCc2ccsc2)cc(-c2n[nH]c3nc(NCCN4CCOCC4)ncc23)c1 [Example 51, (2-Morpholin-4-yl-ethyl)-(3-{3-[(thiophen-3-ylmethyl)-amino]-phenyl}-1H-pyrazolo[3,4-d]pyrimidin-6-yl)-amine] | > 10 µM | 9.02 µM |  | 
4 | c1ccc(CNc2cccc(-c3n[nH]c4nc(NCCN5CCOCC5)ncc34)c2)cc1 [Example 46, [3-(3-Benzylamino-phenyl)-1H-pyrazolo[3,4-d]pyrimidin-6-yl]-(2-morpholin-4-yl-ethyl)-amine] |  |  | 43% | 55%
5 | Clc1cccc(CNc2nccc(-c3n[nH]c4nc(NCCN5CCCCC5)ncc34)n2)c1 [Example 93, hydrochloride] | 0.93 µM | 0.46 µM |  | 
6 | c1ccc(CNc2cccc(-c3n[nH]c4nc(NCCN5CCCCC5)ncc34)n2)cc1 [Example 44, [3-(6-Benzylamino-pyridin-2-yl)-1H-pyrazolo[3,4-d]pyrimidin-6-yl]-(2-piperidin-1-yl-ethyl)-amine] |  | 3.96 µM | 32% | 
7 | Clc1cccc(CNc2nccc(-c3n[nH]c4nc(NC5CCNCC5)ncc34)n2)c1 [Example 86, {3-[2-(3-Chloro-benzylamino)-pyrimidin-4-yl]-1H-pyrazolo[3,4-d]pyrimidin-6-yl}-piperidin-4-yl-amine; hydrochloride] | 0.078 µM | 0.047 µM |  | 
8 | Clc1cccc(CNc2nccc(-c3n[nH]c4nc(NCC5CCNCC5)ncc34)n2)c1 [Example 88, {3-[2-(3-Chloro-benzylamino)-pyrimidin-4-yl]-1H-pyrazolo[3,4-d]pyrimidin-6-yl}-piperidin-4-ylmethyl-amine; hydrochloride] | 0.016 µM | 0.0089 µM |  | 
9 | NCCC(Nc1cccc(-c2n[nH]c3nc(NCCN4CCOCC4)ncc23)n1)c1ccccc1 (stereo not drawn) [Example 75, N1-{6-[6-(2-Morpholin-4-yl-ethylamino)-1H-pyrazolo[3,4-d]pyrimidin-3-yl]-pyridin-2-yl}-1-phenyl-propane-1,3-diamine; hydrochloride] | 2.73 µM | 2.58 µM |  | 
10 | NCCC(Nc1cccc(-c2n[nH]c3nc(NCCN4CCOCC4)ncc23)c1)c1ccccc1 (stereo not drawn) [Example 73, N1-{3-[6-(2-Morpholin-4-yl-ethylamino)-1H-pyrazolo[3,4-d]pyrimidin-3-yl]-phenyl}-1-phenyl-propane-1,3-diamine; hydrochloride] | 9.59 µM | 4.88 µM |  | 
11 | NCC(Nc1nccc(-c2n[nH]c3nc(N[C@H]4CC[C@H](N)CC4)ncc23)n1)c1ccccc1 (stereo partly drawn) [Example 67, N-{3-[2-(2-Amino-1-phenyl-ethylamino)-pyrimidin-4-yl]-1H-pyrazolo[3,4-d]pyrimidin-6-yl}-cyclohexane-1,4-diamine; hydrochloride] | 0.00517 µM | 0.0046 µM |  | 
12 | N[C@H]1CC[C@H](Nc2ncc3c(-c4cccc(NCc5ccsc5)n4)n[nH]c3n2)CC1 [Example 65, N-(3-{6-[(Thiophen-3-ylmethyl)-amino]-pyridin-2-yl}-1H-pyrazolo[3,4-d]pyrimidin-6-yl)-cyclohexane-1,4-diamine; hydrochloride] | < 0.005 µM | 0.021 µM |  | 
13 | Clc1cccc(CNc2nccc(-c3n[nH]c4nc(NCCN5CCCC5)ncc34)n2)c1 [Example 90, {3-[2-(3-Chloro-benzylamino)-pyrimidin-4-yl]-1H-pyrazolo[3,4-d]pyrimidin-6-yl}-(2-pyrrolidin-1-yl-ethyl)-amine; hydrochloride] | 1.32 µM | 0.536 µM |  | 
14 | Clc1cccc(CNc2nccc(-c3n[nH]c4nc(NCCN5CCNCC5)ncc34)n2)c1 [Example 92, {3-[2-(3-Chloro-benzylamino)-pyrimidin-4-yl]-1H-pyrazolo[3,4-d]pyrimidin-6-yl}-(2-piperazin-1-yl-ethyl)-amine; hydrochloride] | 0.057 µM | 0.076 µM |  | 
15 | N[C@H]1CC[C@H](Nc2ncc3c(-c4ccnc(NCc5cccc(C(F)(F)F)c5)n4)n[nH]c3n2)CC1 [Example 84, N-{3-[2-(3-Trifluoromethyl-benzylamino)-pyrimidin-4-yl]-1H-pyrazolo[3,4-d]pyrimidin-6-yl}-cyclohexane-1,4-diamine; hydrochloride] | 0.007 µM | 0.005 µM |  | 
16 | OCCNc1ncc2c(-c3ccnc(NCc4cccc(Cl)c4)n3)n[nH]c2n1 [Example 91, 2-{3-[2-(3-Chloro-benzylamino)-pyrimidin-4-yl]-1H-pyrazolo[3,4-d]pyrimidin-6-ylamino}-ethanol; hydrochloride] | 0.183 µM | 0.25 µM |  | 
17 | NCCC(Nc1nccc(-c2n[nH]c3nc(N[C@H]4CC[C@H](N)CC4)ncc23)n1)c1ccccc1 (stereo partly drawn) [Example 68, N-{3-[2-(3-Amino-1-phenyl-propylamino)-pyrimidin-4-yl]-1H-pyrazolo[3,4-d]pyrimidin-6-yl}-cyclohexane-1,4-diamine; hydrochloride] | 0.011 µM | 0.011 µM |  | 
18 | c1ccc(CNc2cccc(-c3n[nH]c4nc(NCCN5CCOCC5)ncc34)n2)cc1 [Example 45, [3-(6-Benzylamino-pyridin-2-yl)-1H-pyrazolo[3,4-d]pyrimidin-6-yl]-(2-morpholin-4-yl-ethyl)-amine] | 4.58 µM | 2.31 µM |  | 
